What was measured:
Type in all cases: biochemical
Aurora-2 = target: T1, Aurora-2 (Homo sapiens, UniProt O14965); experiment: Inhibition of AUR-2, coupled enzyme assay
T1 construct: addition of 10 μL of Aurora-2 stock solution to give a final concentration of 70 nM
T1 sequence (O14965 1-403): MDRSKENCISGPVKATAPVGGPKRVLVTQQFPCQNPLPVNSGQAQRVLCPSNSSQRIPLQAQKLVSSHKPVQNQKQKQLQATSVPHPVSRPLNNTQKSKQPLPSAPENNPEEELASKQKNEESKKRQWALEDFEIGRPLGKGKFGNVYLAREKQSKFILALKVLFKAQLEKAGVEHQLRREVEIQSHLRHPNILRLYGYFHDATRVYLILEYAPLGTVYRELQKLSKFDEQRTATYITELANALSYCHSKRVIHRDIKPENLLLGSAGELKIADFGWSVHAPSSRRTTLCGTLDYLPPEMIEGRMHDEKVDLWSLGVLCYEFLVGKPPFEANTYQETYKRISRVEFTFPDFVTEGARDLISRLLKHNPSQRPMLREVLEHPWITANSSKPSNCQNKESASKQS
Protocol: Compounds are screened in the following manner for their ability to inhibit Aurora-2 using a standard coupled enzyme assay (Fox et al (1998) Protein Sci 7, 2249). To an assay stock buffer solution containing 0.1M HEPES 7.5, 10 mM MgCl2, 1 mM DTT, 25 mM NaCl, 2.5 mM phosphoenolpyruvate, […], 30 mg/ml pyruvate kinase, 10 mg/ml lactate dehydrogenase, 40 mM ATP, and 800 μM peptide (LRRASLG, American Peptide, Sunnyvale, Calif.) is added a DMSO solution of a compound of the present invention to a final concentration of 30 μM. The resulting mixture is incubated at 30° C. for 10 min. The reaction was initiated by the addition of 10 μL of Aurora-2 stock solution to give a final concentration of 70 nM in the assay. The rates of reaction are obtained by monitoring absorbance at 340 nm over a 5 minute read time at 30° C. using a BioRad Ultramark plate reader (Hercules, Calif.). The Ki values are determined from the rate data as a function of inhibitor concentration.

GSK-3β (AA 1-420) = GSK-3β (AA 1-420) (Homo sapiens, UniProt P49841); experiment: Inhibition of GSK-3, coupled enzyme system; details: 20 μM ATP, 30° C.
GSK-3β (AA 1-420), sequence (P49841 whole entry, the tested form may be a part): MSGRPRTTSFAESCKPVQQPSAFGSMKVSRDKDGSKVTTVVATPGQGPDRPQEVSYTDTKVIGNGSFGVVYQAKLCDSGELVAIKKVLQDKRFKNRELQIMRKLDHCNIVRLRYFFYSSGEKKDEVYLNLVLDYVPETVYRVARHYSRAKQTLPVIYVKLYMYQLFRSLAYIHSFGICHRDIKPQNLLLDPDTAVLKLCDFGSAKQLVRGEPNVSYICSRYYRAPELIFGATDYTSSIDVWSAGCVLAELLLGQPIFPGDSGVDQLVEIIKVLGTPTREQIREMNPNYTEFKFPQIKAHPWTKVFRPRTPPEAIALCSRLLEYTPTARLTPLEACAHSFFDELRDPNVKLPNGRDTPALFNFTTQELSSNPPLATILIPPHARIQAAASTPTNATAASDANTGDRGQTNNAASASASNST
Protocol: Compounds are screened for their ability to inhibit GSK-3β (AA 1-420) activity using a standard coupled enzyme system [Fox et al. Protein Sci. 1998, 7, 2249]. Reactions are carried out in a solution containing 100 mM HEPES (pH 7.5), 10 mM MgCl2, 25 mM NaCl, 300 μM NADH, 1 mM DTT and 1.5% DMSO. Final substrate concentrations in the assay are 20 μM ATP (Sigma Chemicals, St Louis, Mo.) and 300 μM peptide (American Peptide, Sunnyvale, Calif.). Reactions are carried out at 30° C. and 20 nM GSK-3β. Final concentrations of the components of the coupled enzyme system are 2.5 mM phosphoenolpyruvate, 300 μM NADH, 30 μg/ml pyruvate kinase and 10 μg/ml lactate dehydrogenase.
An assay stock buffer solution is prepared containing all of the reagents listed above with the exception of ATP and the test compound of interest. The assay stock buffer solution (175 μl) is incubated in a 96 well plate with 5 μl of the test compound of interest at final concentrations spanning 0.002 μM to 30 μM at 30° C. for 10 min. Typically, a 12 point titration is conducted by preparing serial dilutions (from 10 mM compound stocks) with DMSO of the test compounds in daughter plates. The reaction is initiated by the addition of 20 μl of ATP (final concentration 20 μM). Rates of reaction are obtained using a Molecular Devices Spectramax plate reader (Sunnyvale, Calif.) over 10 min at 30° C. The Ki values are determined from the rate data as a function of inhibitor concentration.

c-KIT = target: T2, c-KIT (Homo sapiens, UniProt P10721); experiment: Inhibition of c-KIT, radiometric filter-binding assay; details: 700 μM ATP, pE4Y substrate
T2 construct: 0.02% BSA and 25 nM c-KIT
T2 sequence (P10721 26-976): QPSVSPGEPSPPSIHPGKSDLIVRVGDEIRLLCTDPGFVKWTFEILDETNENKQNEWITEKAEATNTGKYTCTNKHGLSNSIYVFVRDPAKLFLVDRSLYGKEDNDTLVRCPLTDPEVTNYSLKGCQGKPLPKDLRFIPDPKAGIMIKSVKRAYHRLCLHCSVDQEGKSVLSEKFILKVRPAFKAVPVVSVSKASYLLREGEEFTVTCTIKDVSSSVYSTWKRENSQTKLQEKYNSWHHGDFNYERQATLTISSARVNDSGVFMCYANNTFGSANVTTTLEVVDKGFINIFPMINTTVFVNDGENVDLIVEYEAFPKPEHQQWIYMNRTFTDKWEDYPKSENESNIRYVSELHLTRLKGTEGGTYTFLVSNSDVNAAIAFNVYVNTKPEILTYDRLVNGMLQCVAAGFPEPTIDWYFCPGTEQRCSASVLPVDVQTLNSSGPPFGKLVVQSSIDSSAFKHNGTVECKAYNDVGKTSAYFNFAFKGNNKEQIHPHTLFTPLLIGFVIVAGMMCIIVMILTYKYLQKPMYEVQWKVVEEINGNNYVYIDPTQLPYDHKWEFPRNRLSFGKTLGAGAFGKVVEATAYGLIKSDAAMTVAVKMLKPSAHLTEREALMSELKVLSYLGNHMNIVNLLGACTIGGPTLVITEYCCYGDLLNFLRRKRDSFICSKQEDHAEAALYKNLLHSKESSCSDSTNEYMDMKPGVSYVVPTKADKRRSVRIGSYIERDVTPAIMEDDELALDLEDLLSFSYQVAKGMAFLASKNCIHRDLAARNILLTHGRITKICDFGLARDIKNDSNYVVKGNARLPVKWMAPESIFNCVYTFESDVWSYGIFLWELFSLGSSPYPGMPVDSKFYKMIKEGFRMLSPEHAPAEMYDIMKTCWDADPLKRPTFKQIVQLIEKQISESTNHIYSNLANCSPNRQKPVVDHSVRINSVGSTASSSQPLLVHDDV
Protocol: Compounds are screened for their ability to inhibit c-KIT activity using a radiometric filter-binding assay. This assay monitors the ^33P incorporation into a substrate poly(Glu, Tyr) 4:1 (pE4Y). Reactions are carried out in a solution containing 100 mM HEPES (pH 7.5), 10 mM MgCl2, 25 mM NaCl, 1 mM DTT, 0.01% BSA and 2.5% DMSO. Final substrate concentrations in the assay were 700 μM ATP and 0.5 mg/mL pE4Y (both from Sigma Chemicals, St Louis, Mo.). The final concentration of compounds is generally between 0.01 and 5 μM. Typically, a 12-point titration is conducted by preparing serial dilutions from 10 mM DMSO stock of test compound. Reactions were carried out at room temperature.
Two assay solutions are prepared. Solution 1 contains 100 mM HEPES (pH 7.5), 10 mM MgCl2, 25 mM NaCl, 1 mg/ml pE4Y and 1.4 mM ATP (containing 0.5 μCi of [γ-^33P]ATP for each reaction). Solution 2 contains 100 mM HEPES (pH 7.5), 10 mM MgCl2, 25 mM NaCl, 2 mM DTT, 0.02% BSA and 25 nM c-KIT. The assay is run on a 96 well plate by mixing 33 μL of Solution1 and 1.65 μL of the test compounds. The reaction is initiated with 33 μL of Solution2. After incubation for 20 minutes at room temperature, the reaction was stopped with 50 μL of 10% TCA containing 0.2 mM of ATP. All of the reaction volume is then transferred to a filter plate and washed with 5% TCA by a Harvester9600 from TOMTEC (Hamden, Conn.). The amount of ^33P incorporation into pE4y is analyzed by a Packard TopCount Microplate Scintillation Counter (Meriden, Conn.). The data is fitted using Prism software to get an IC50 or Ki.

**Q.** What does the source list for `COc1cc(Nc2ncn(-c3ccccc3)n2)cc(OC)c1OC` [Compound I-42]?
**A.** Ki (Aurora-2): 100 to 1000 nM; Ki (GSK-3β (AA 1-420)): > 1000 nM

**Q.** What does the source list for `COc1cc(Nc2ncn(-c3ccc(C#N)cc3)n2)cc(OC)c1OC` [Compound I-43]?
**A.** Ki (Aurora-2): 100 to 1000 nM; Ki (GSK-3β (AA 1-420)): 500 to 1000 nM

**Q.** Which Ki (c-KIT) does the source give for `CCOc1cccc(Nc2ncn(-c3ccccc3)n2)c1` [Compound I-45] here?
**A.** The Ki was under 50 nM.

**Q.** And the Ki (Aurora-2)?
**A.** Its Ki is over 1000 nM.

**Q.** And the Ki (GSK-3β (AA 1-420))?
**A.** The Ki was over 1000 nM.

**Q.** How did the Ki (c-KIT) turn out when `CC(C)Oc1cccc(Nc2ncn(-c3ccccc3)n2)c1` [Compound I-46] was run?
**A.** The Ki was under 50 nM.

**Q.** And the Ki (Aurora-2)?
**A.** The Ki was over 1000 nM.

**Q.** What about the Ki (GSK-3β (AA 1-420)) of the same compound?
**A.** Its Ki is over 1000 nM.

**Q.** `OC[C@H]1CCCN(c2cc(-n3cnc(Nc4ccccc4)n3)ccn2)C1` [Compound I-65] was tested. Which Ki (Aurora-2) did it give?
**A.** Its Ki is 100 to 1000 nM.

**Q.** What about the Ki (GSK-3β (AA 1-420)) of the same compound?
**A.** Its Ki is 500 to 1000 nM.

**Q.** `CC(=O)N1CCCN(c2cc(-n3cnc(Nc4ccccc4)n3)ccn2)CC1` [Compound I-66] was tested. Which Ki (c-KIT) did it give?
**A.** The Ki was 50 to 500 nM.

**Q.** What about the Ki (Aurora-2) of the same compound?
**A.** Its Ki is 100 to 1000 nM.

**Q.** What about the Ki (GSK-3β (AA 1-420)) of the same compound?
**A.** The Ki was over 1000 nM.

**Q.** What does the source list for `CCC(=O)N1CCCN(c2cc(-n3cnc(Nc4ccccc4)n3)ccn2)CC1` [Compound I-67]?
**A.** Ki (Aurora-2): 100 to 1000 nM; Ki (GSK-3β (AA 1-420)): > 1000 nM

**Q.** With `COCC(=O)N1CCCN(c2cc(-n3cnc(Nc4ccccc4)n3)ccn2)CC1` [Compound I-71] as the compound, how does the Ki (Aurora-2) read?
**A.** Its Ki is 100 to 1000 nM.

**Q.** What about the Ki (GSK-3β (AA 1-420)) of the same compound?
**A.** Its Ki is over 1000 nM.

**Q.** What does the source list for `N#CCC(=O)N1CCCN(c2cc(-n3cnc(Nc4ccccc4)n3)ccn2)CC1` [Compound I-72]?
**A.** Ki (c-KIT): 50 to 500 nM; Ki (Aurora-2): 100 to 1000 nM; Ki (GSK-3β (AA 1-420)): > 1000 nM

**Q.** How did the Ki (c-KIT) turn out when `c1ccc(Nc2ncn(-c3ccnc(N4CCCCCC4)c3)n2)cc1` [Compound I-73] was run?
**A.** Its Ki is 50 to 500 nM.

**Q.** And the Ki (Aurora-2)?
**A.** The Ki was under 100 nM.

**Q.** And the Ki (GSK-3β (AA 1-420))?
**A.** Its Ki is 500 to 1000 nM.

**Q.** For `CC(=O)N1[C@H](C)CN(c2cc(-n3cnc(Nc4ccccc4)n3)ccn2)C[C@@H]1C` [Compound I-74], which Ki (c-KIT) is on record?
**A.** Its Ki is 50 to 500 nM.

**Q.** And the Ki (Aurora-2)?
**A.** Its Ki is under 100 nM.

**Q.** What about the Ki (GSK-3β (AA 1-420)) of the same compound?
**A.** Its Ki is over 1000 nM.

**Q.** How did the Ki (c-KIT) turn out when `CCOC(=O)c1ccc(Nc2ncn(-c3ccnc(N4C[C@@H](C)N(C(C)=O)[C@@H](C)C4)c3)n2)cc1` [Compound I-75] was run?
**A.** The Ki was under 50 nM.

**Q.** And the Ki (Aurora-2)?
**A.** The Ki was under 100 nM.

**Q.** And the Ki (GSK-3β (AA 1-420))?
**A.** The Ki was over 1000 nM.

**Q.** What does the source list for `CC(=O)N1[C@H](C)CN(c2cc(-n3cnc(Nc4ccc(NC(=O)N(C)C)cc4)n3)ccn2)C[C@@H]1C` [Compound I-77, 3-(4-{1-[2-(4-Acetyl-3,5-dimethyl-piperazin-1-yl)-pyridin-4-yl]-1H-[1,2,4]triazol-3-ylamino}-phenyl)-1,1-dimethyl-urea]?
**A.** Ki (c-KIT): 50 to 500 nM; Ki (Aurora-2): < 100 nM; Ki (GSK-3β (AA 1-420)): > 1000 nM

**Q.** How did the Ki (c-KIT) turn out when `COC(=O)Nc1ccc(Nc2ncn(-c3ccnc(N4C[C@@H](C)N(C(C)=O)[C@@H](C)C4)c3)n2)cc1` [Compound I-78] was run?
**A.** Its Ki is 50 to 500 nM.

**Q.** And the Ki (Aurora-2)?
**A.** Its Ki is under 100 nM.

**Q.** And the Ki (GSK-3β (AA 1-420))?
**A.** Its Ki is over 1000 nM.

**Q.** With `CC(=O)N1[C@H](C)CN(c2cc(-n3cnc(Nc4ccc(NC(=O)C(F)(F)F)cc4)n3)ccn2)C[C@@H]1C` [Compound I-79] as the compound, how does the Ki (c-KIT) read?
**A.** The Ki was 50 to 500 nM.

**Q.** What about the Ki (Aurora-2) of the same compound?
**A.** The Ki was under 100 nM.

**Q.** And the Ki (GSK-3β (AA 1-420))?
**A.** Its Ki is over 1000 nM.

**Q.** Which Ki (c-KIT) does the source give for `CC(=O)N1[C@H](C)CN(c2cc(-n3cnc(Nc4ccc(N)cc4)n3)ccn2)C[C@@H]1C` [Compound I-82] here?
**A.** Its Ki is 50 to 500 nM.

**Q.** What about the Ki (Aurora-2) of the same compound?
**A.** Its Ki is under 100 nM.

**Q.** And the Ki (GSK-3β (AA 1-420))?
**A.** The Ki was over 1000 nM.

**Q.** Which results are given for `CC(=O)N1[C@H](C)CN(c2cc(-n3cnc(Nc4ccc(N5CCOCC5)cc4)n3)ccn2)C[C@@H]1C` [Compound I-85, 1-(2,6-Dimethyl-4-{4-[3-(4-morpholin-4-yl-phenylamino)-[1,2,4]triazol-1-yl]-pyridin-2-yl}-piperazin-1-yl)-ethanone]?
**A.** Ki (c-KIT): 50 to 500 nM; Ki (Aurora-2): < 100 nM; Ki (GSK-3β (AA 1-420)): > 1000 nM

**Q.** `CCCOC(=O)Nc1ccc(Nc2ncn(-c3ccnc(N4C[C@@H](C)N(C(C)=O)[C@@H](C)C4)c3)n2)cc1` [Compound I-88] was tested. Which Ki (c-KIT) did it give?
**A.** Its Ki is 50 to 500 nM.

**Q.** What about the Ki (Aurora-2) of the same compound?
**A.** The Ki was under 100 nM.

**Q.** And the Ki (GSK-3β (AA 1-420))?
**A.** The Ki was over 1000 nM.

**Q.** How did the Ki (c-KIT) turn out when `CC(=O)N1[C@H](C)CN(c2cc(-n3cnc(Nc4ccc(NC(=O)OC(C)C)cc4)n3)ccn2)C[C@@H]1C` [Compound I-89] was run?
**A.** The Ki was 50 to 500 nM.

**Q.** And the Ki (Aurora-2)?
**A.** The Ki was under 100 nM.

**Q.** What about the Ki (GSK-3β (AA 1-420)) of the same compound?
**A.** Its Ki is over 1000 nM.

**Q.** For `c1ccc(-n2cnc(Nc3ccnc(N4CCOCC4)c3)n2)cc1` [Compound I-105], which Ki (c-KIT) is on record?
**A.** The Ki was under 50 nM.

**Q.** What about the Ki (Aurora-2) of the same compound?
**A.** Its Ki is 100 to 1000 nM.

**Q.** And the Ki (GSK-3β (AA 1-420))?
**A.** The Ki was over 1000 nM.

Source: patent US7598245B2 (Vertex Pharmaceuticals Incorporated, priority 2003, dated 2009)
